pIC50: −log10 of the molar value. “And” between values parts separate entries of the source, which are not always exact repeats. Identical values can stand only once. Like-named read-outs stand apart in the source and are kept apart here.
Key:
[1] = test system: squamous cell human carcinoma cell line (SCC A431); test: MTT cell proliferation assay, 72 hours, dark or blue light, squamous cell carcinoma; assay type: cell-based; conditions: for inhibition at 0.02 µM / inhibition at 0.04 µM / inhibition at 0.08 µM / inhibition at 0.01 µM: Homo sapiens, read-out: growth inhibition relative to untreated control
Protocol: The effects of combined treatment with KX01, a vitamin D derivative, and/or blue/UV light exposure were characterized using a cell proliferation assay. Cell proliferation was assessed by using an MTT assay. Cells were seeded in 96-well plate (3,000-5,000 cells per well) and treated with test compounds at varying concentrations (e.g. KX01: 5 to 80 nM; calcipotriol 5 to 1,280 nM) for 72 hours, either in the dark or exposed to blue light irradiation (for 2, 4, or 6 hours). To each well, 10 μl of 3-(4,5-dimethylthiazol-2-yl)-2,5-diphenyltetrazolium bromide (MTT) (RPI Corporation™) solution (5 mg/ml in PBS) was added and incubated at 37° C. for 3 hours. Next, 100 μl of 20% SDS was added to each well. After overnight incubation at 37° C., the absorbance in each well was measured at 570 nm in a microplate reader (Molecular Devices™). The cell growth curve and GI50s were calculate using GraphPad Prism™ 5 software. Similar studies were performed using a squamous cell carcinoma cell line (SCC A431). Tables 19 and 20 show the results of cell growth inhibition studies (expressed as a percentage relative to control cell growth) for treatment with either KX01 or calcipotriol in combination with exposure to blue light. […] The percentage of growth inhibition relative to untreated control is shown. Tables 21 to 24 show the effects of combined treatment with KX01, calcipotriol, and exposure to blue light at 0 hours, 2 hours, 4 hours, and 6 hours of light exposure (respectively) on human squamous cell carcinoma cells. Values are expressed as the percentage of growth inhibition relative to cells grown under control conditions (0 hours blue light, [KX01]=0, [calcipotriol]=0). The percentage of growth inhibition relative to an untreated control is shown. […] Results are shown below in Tables 31 and 32, which show results for KX01 and calcipotriol (respectively). Values are expressed as the percentage of growth inhibition relative to cells grown under control conditions (0 hours blue light, [KX01]=0, [calcipotriol]=0). […] Results are shown below in Tables 33 to Table 36, which show results from 0, 2, 4, and 6 hours of blue light exposure (respectively). Values are expressed as the percentage of growth inhibition relative to cells grown under control conditions (0 hours blue light, [KX01]=0, [calcipotriol]=0).

[2] = test system: cell proliferation/growth; test: combined treatment with KX01 and tazarotene, inhibition of cell proliferation/growth; assay type: cell-based
Description: Examples of suitable retinoids include retinol, retinal, retinoic acid isotretinoin, alitreninoin, etretinate, acitretin, adapalene, bexarotene, and/or tazarotene. FIGS. 7 and 8 show the effects of tazarotene on growth of cells in culture, including CCD-1106 KERTr keratinocytes (FIG. 7) and A431 cells (epidermoid cells obtained from a human squamous cell carcinoma, FIG. 8).

[3] = test system: human keratinocyte cell line; test: inhibition of human keratinocyte growth, individual dose response, 72 hours, MTT assay; assay type: cell-based; conditions: 72 hour exposure
Protocol: FIG. 4: Inhibition of human keratinocyte growth versus KX01 concentration (treatment duration: 72 hours; cell growth measured using the MTT assay). […] FIG. 5: Inhibition of human keratinocyte growth versus calcipotriol concentration (treatment duration: 72 hours; cell growth measured using the MTT assay). […] A human keratinocyte cell line was used in these studies.

tubulin polymerization = conditions: cited from earlier work
apoptosis by G2/M arrest = conditions: cited from earlier work
SRC-kinase = SRC-kinase (Homo sapiens, UniProt P12931); conditions: cited from earlier work
Chain of SRC-kinase (P12931 whole entry): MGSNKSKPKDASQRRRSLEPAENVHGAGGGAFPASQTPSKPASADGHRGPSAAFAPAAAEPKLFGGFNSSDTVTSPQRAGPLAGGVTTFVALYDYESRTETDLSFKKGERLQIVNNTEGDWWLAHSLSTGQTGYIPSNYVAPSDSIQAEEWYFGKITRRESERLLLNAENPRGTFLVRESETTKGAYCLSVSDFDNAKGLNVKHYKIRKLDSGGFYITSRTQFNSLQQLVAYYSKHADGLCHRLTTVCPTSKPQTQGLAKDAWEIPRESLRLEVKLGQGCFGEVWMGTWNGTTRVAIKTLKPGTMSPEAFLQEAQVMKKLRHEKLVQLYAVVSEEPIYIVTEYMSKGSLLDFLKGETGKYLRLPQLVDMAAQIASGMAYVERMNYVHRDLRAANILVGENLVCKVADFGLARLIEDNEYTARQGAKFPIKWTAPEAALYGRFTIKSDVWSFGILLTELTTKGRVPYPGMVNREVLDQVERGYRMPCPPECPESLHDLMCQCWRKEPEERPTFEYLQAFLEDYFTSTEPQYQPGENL

[4] = test system: human keratinocyte cell line; test: combinatorial dose response surface study of cell viability (PSI), KX01 and calcipotriol; assay type: cell-based; conditions: model estimate
Description: FIG. 6: Dose response surface of cell viability versus calcipotriol concentration versus KX01 concentration. Synergistic combinations of calcipotriol and KX01 are below the surface of additivity (indicating enhanced inhibition of growth), and antagonistic combinations are above the surface of additivity (indicative of reduced inhibition of growth). Individual dose response curves for KX01 and calcipotriol as determined above can be used to generate dose response surfaces representative of the additive effects of these compounds on keratinocyte growth. […] A PSI value of 1 corresponds to an additive effect. A PSI value of less than 1 indicates a synergistic effect, and a PSI value of greater than 1 indicates an antagonistic effect. Cell viability was measured in a number of experiments. In Experiment 1, the concentrations of calcipotriol were: 0, 3, 9, 27, 81, and 243 nM, and the concentrations of KX01 were: 0, 5, 10, 20, 40, 60, 80, and 160 nM. In Experiment 2, the concentrations of calcipotriol were: 0, 5, 10, 20, 40, 80, 160, 320, and 1280 nM, and the concentrations of KX01 were: 1, 3, 9, 27, and 81 nM. […] It is notable that unexpected synergy is observed across a range of concentrations and combinations. Tables 7, 8, and 9 show the results for determination of individual IC50 and maximum inhibitory concentration values for KX01 and calcipotriol, as well as the PSI value for the drug combination. […]

O=C(Cc1ccc(-c2ccc(OCCN3CCOCC3)cc2)cn1)NCc1ccccc1 [KX01, N-benzyl-2-(5-{4-[2-(morpholine-4-yl)ethoxy]phenyl}pyridine-2-yl)acetamide]
inhibition at 0.02 µM ([1]; A-431, 0 h, KX01 20 nM, blue light 0 h): 99%
inhibition at 0.04 µM ([1]; A-431, 0 h, KX01 40 nM, blue light 0 h): 99%
inhibition at 0.08 µM ([1]; A-431, 0 h, KX01 80 nM, blue light 0 h): 99%
inhibition at 0.01 µM ([1]; A-431, 2 h, KX01 10 nM, blue light 2 h): 40%
inhibition at 0.02 µM ([1]; A-431, 2 h, KX01 20 nM, blue light 2 h): 97%
inhibition at 0.04 µM ([1]; A-431, 2 h, KX01 40 nM, blue light 2 h): 97%
inhibition at 0.08 µM ([1]; A-431, 2 h, KX01 80 nM, blue light 2 h): 95%
inhibition at 0.01 µM ([1]; A-431, 4 h, KX01 10 nM, blue light 4 h): 66%
inhibition at 0.02 µM ([1]; A-431, 4 h, KX01 20 nM, blue light 4 h): 76%
inhibition at 0.04 µM ([1]; A-431, 4 h, KX01 40 nM, blue light 4 h): 73%
inhibition at 0.08 µM ([1]; A-431, 4 h, KX01 80 nM, blue light 4 h): 75%
inhibition at 0.01 µM ([1]; A-431, 6 h, KX01 10 nM, blue light 6 h): 79%
inhibition at 0.02 µM ([1]; A-431, 6 h, KX01 20 nM, blue light 6 h): 81%
inhibition at 0.04 µM ([1]; A-431, 6 h, KX01 40 nM, blue light 6 h): 81%
inhibition at 0.08 µM ([1]; A-431, 6 h, KX01 80 nM, blue light 6 h): 82%
growth inhibition relative to untreated control ([1]; KX01 10 nM, blue light 0 h): 0% and 11%
growth inhibition relative to untreated control ([1]; KX01 10 nM, blue light 2 h): 44%
growth inhibition relative to untreated control ([1]; KX01 10 nM, blue light 6 h): 77%
growth inhibition relative to untreated control ([1]; KX01 20 nM, blue light 0 h): 80%
growth inhibition relative to untreated control ([1]; KX01 20 nM, blue light 2 h): 83%
growth inhibition relative to untreated control ([1]; KX01 20 nM, blue light 4 h): 69% and 74%
growth inhibition relative to untreated control ([1]; KX01 20 nM, blue light 6 h): 83%
growth inhibition relative to untreated control ([1]; KX01 40 nM, blue light 0 h): 100%
growth inhibition relative to untreated control ([1]; KX01 40 nM, blue light 4 h): 80%
growth inhibition relative to untreated control ([1]; KX01 40 nM, blue light 6 h): 86%
growth inhibition relative to untreated control ([1]; KX01 80 nM, blue light 2 h): 98%
growth inhibition relative to untreated control ([1]; KX01 80 nM, blue light 4 h): 84%
growth inhibition relative to untreated control ([1]; KX01 80 nM, blue light 6 h): 88%
effect of blue light exposure with the drug on cell growth inhibition ([1]; for example at 10 nM KX01): Synergistic effects
H [2]: 3.3
pIC50 [2]: 7.35
Imax [2]: 0.92
pIC50 [3]: 7.38
inhibition of tubulin polymerization (tubulin polymerization): inhibits tubulin polymerization
induction of apoptosis (apoptosis by G2/M arrest): induces apoptosis by G2/M arrest
SRC-kinase inhibition (SRC-kinase): inhibit SRC-kinase
pIC50 ([4]; Homo sapiens, Keratinocyte): 7.38
pIC50 [4]: 7.48 and 7.33
Max Inhibition [4]: 0.856 and 0.77 and 0.741

Reference: patent US11752156B2, “Compositions and methods for treating hyperproliferative skin disorders” (Athenex HK Innovative Limited, priority 2018, dated 2023)
